Measured values taken from patent US20190321302A1, “PRESERVATION OF MICROORGANISMS” (Yun NV, priority 2016, published 2019).
Like-named read-outs stand apart in the source and are kept apart here.

Key:
[1] = at 25° C.; cited from earlier work
probiotic capsules = conditions: for % survival: 3 months cold storage, relative to Blanc; for CFU/g: capsules 15% in basic cream pH 4.5, 3 months cold storage
Procedure: A basic cream without preservatives/perfume was used as basis for further tests. The preservative tested was Sorbic acid (2,4 hexadienoic acid), an organic acid with pKa 4.76 at 25° C. at different concentrations. The pH of the cream for all the tested conditions was adjusted to 4.5 using HCl/NaOH.
The probiotic capsules are suspended 15% (m/) in the cream base with the different preservative concentrations. To simulate release of the probiotics in vivo, the use of a Citric acid buffer was used in vitro. The citric acid will dissolve the membrane of the capsule and hereby release the probiotics inside the capsule. CA buffer was made by dissolving 31.2 g Na2HPo4 & 1.25 g Citric acid in 971.54 g Sterile water. The Final solution is isotonic with a pH of 7.4±0.2.
The sample creams are sampled in duplo after which it is dissolved in CA-buffer. A further 1/10 dilution series is made and 0.1 ml is spread on MRS agar plates using the ‘copacabana spread plating method’ with 5 glass beads diameter 4 mm. Plating happens in duplo and results (after 3 days incubation 37° C.) are calculated as CFU/ gram cream. Storage happens at 4° C. & 25° C. Sampling happens after 1-2-3 months.

[2] = system: E. coli (DSM 1576), Ps. Aeruginosa (DSM 1128), C. albicans (DSM 1386), St. aureus (DSM 799), As. Niger (DSM 1988); conditions: base cream without capsules, pH 4.5, 4 weeks, concentrations as low as 0.1%
Procedure: This was proven by conducting a challenge test on the cream (without the probiotic capsules) with the different preservative concentrations, according to the European Pharmacopeia (5.1.3).
Challenge tests are used to determine the efficacy of the antimicrobial conservation system for dermatological products. […] Sorbic acid was tested in concentrations : 0.5%-0.3%-0.1%-0% (Control).
The challenged organisms were E. coli (DSM 1576), Ps. Aeruginosa (DSM 1128), C. albicans (DSM 1386), St. aureus (DSM 799), As. Niger (DSM 1988).
Addition of the challenged organisms (in 100 gram product) happens at 10^6 CFU/ML. Sampling happens after 6 hours, 24 hours, 7-14 & 28 days. A challenge test is successful if at least a 3 log reduction is visible after 7 days for the bacteria and a 2 log reduction for the yeasts/molds after 14 days—3 log after 4 weeks. Results shown are after 4 weeks of sampling.

For `CC=CC=CC(=O)O` [Sorbic acid, 2,4 hexadienoic acid], the pKa [1] is listed as 4.76, the “% survival” value (probiotic capsules; sorbic acid 0.03 %) is listed as 68% and the CFU/g (probiotic capsules; sorbic acid 0.03 %) is listed as 6.E+07 CFU/g. The “% survival” value (probiotic capsules; sorbic acid 0.1 %) was 79%, the CFU/g (probiotic capsules; sorbic acid 0.1 %) was 7.E+07 CFU/g and the “% survival” value (probiotic capsules; sorbic acid 0.3 %) was 76%. The CFU/g (probiotic capsules; sorbic acid 0.3 %) was 7.E+07 CFU/g and the “preservative effect in challenge test” value [2] was “good preservative effect”.
